We go through two substances from patent US20040087543A1, “Methods and products for mucosal delivery” (priority 2002, published 2004).

Where two headings read alike, the source gives them in different places.

The conditions of the data set: rabbit, in vivo, sc.

Procedure: For the rabbit model, 2.5-3 kg New Zealand male rabbits were used with 3 rabbits per group. Rabbits were allowed to adapt for 7 days and free access to water and food. Ketamine (40 mg/kg) and Xylazine (5 mg/kg) were used to anesthetize the rabbits. To withdraw blood samples, a 24-gauze Teflon catheter was inserted into the center auricular artery. The catheter was connected to a heparin cap filled with 0.9% saline solution.
Enoxaparin at doses of 3 and 6 mg/kg was given by subcutaneous injection at time 0. Blood samples were collected 0, 3, 5, 10, 15, 30 min, 1, 2, 3, 4, 6, 8, 12 hours after subcutaneous injection and processed as described above. The plasma was collected at indicated times and analyzed for anti-Xa assay as described. Enoxaparin for subcutaneous injection was formulated as a solution in PBS or water at 100 mg/ml concentration and appropriate doses were injected.
An anti-Xa assay was used to monitor plasma LMWH levels. The anti-Xa assay was performed using a modification of the amidolytic method of Teien and Lie (Thrombosis res. 10: 399-410, 1977) with the Coatest heparin test kit by using S-2222 as the chromogenic substrate (Diapharma Group, Inc. OH). […] The concentration of enoxaparin in unknown samples was calculated by comparing readings to the calibration curve which was linear in the range of 0.1-0.7 IU/ml.
Experimental data, expressed in anti-Xa IU/mL, was utilized for non-linear regression curves based on a one-compartment model (Comelli and Fareed, Semin thromb Hemost, 25: 57-61, 1999) by using SigmaPlot program with the method of extended least squares. From the kinetic curves, the following parameters were calculated: the area under curve (AUC expressed in IU*hr*ml^−1), absorption half-life (t1/2 expressed in hr); and half-life of apparent elimination (t1/2e expressed in hr). The AUC (0-t) was calculated using the trapezoidal rule (Rowland and Tozer, Clinical Pharmacokinetics. Concepts and Applications. 459-461, Lea and Febiger, 1989) and extrapolated to infinity (AUC) by dividing the value of the last measured concentration by the elimination rate constant.

In turn, enoxaparin displayed an absorption half-life of 1 to 2 h. Moreover, where the note is “3 mg/kg”, the “AUC (IU*hr/mL)” value turned out to be 6.27 IU * hr/mL, the Ka is recorded as 0.40, the Ke was found to be 0.35 h⁻¹ and the MRT (AUMC/AUC) is 4.75 h. Besides, under “6 mg/kg”, the “AUC (IU*hr/mL)” value is 13.45 IU * hr/mL, the Ka stood at 0.35, the Ke was determined as 0.3 h⁻¹ and the MRT (AUMC/AUC) was determined as 5.48 h.

Take dalteparin: the absorption half-life was 1 to 2 h. For the setting “3 mg/kg”, the “AUC (IU*hr/mL)” value was 6.93 IU*hr/mL, the Ka was determined as 0.40, the Ke is 0.33 h⁻¹ and the MRT (AUMC/AUC) was 4.97 h. Besides, where the note is “6 mg/kg”, the “AUC (IU*hr/mL)” value was determined as 13.27 IU*hr/mL, the Ka stood at 0.32, the Ke was found to be 0.27 h⁻¹ and the MRT (AUMC/AUC) turned out to be 5.93 h.
